Laboratory results published in ChEMBL document CHEMBL1201862, “PubChem BioAssay data set” (2004).
Active and inactive are the calls of the source.

Columns and labels:
[1] = molecular target: Eukaryotic translation initiation factor 4E (Mus musculus, UniProt P63073); assay: blockers of eIF4G binding by eIF4E – biochemical, TR-FRET, dose response (AID 855); assay type: functional;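 further: potency for disrupting eIF4E binding to eIF4GI seen as loss of FRET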
[2] = molecular target: T1, Short transient receptor potential channel 4 (Mus musculus, UniProt Q9QUQ5); assay: calcium entry via TRPC4 opening agents – cell-based, HEK293 TRPC4/mu-opioid, Fluo-4 calcium, dose response (AID 434937); assay type: functional
T1 sequence (Q9QUQ5 whole entry): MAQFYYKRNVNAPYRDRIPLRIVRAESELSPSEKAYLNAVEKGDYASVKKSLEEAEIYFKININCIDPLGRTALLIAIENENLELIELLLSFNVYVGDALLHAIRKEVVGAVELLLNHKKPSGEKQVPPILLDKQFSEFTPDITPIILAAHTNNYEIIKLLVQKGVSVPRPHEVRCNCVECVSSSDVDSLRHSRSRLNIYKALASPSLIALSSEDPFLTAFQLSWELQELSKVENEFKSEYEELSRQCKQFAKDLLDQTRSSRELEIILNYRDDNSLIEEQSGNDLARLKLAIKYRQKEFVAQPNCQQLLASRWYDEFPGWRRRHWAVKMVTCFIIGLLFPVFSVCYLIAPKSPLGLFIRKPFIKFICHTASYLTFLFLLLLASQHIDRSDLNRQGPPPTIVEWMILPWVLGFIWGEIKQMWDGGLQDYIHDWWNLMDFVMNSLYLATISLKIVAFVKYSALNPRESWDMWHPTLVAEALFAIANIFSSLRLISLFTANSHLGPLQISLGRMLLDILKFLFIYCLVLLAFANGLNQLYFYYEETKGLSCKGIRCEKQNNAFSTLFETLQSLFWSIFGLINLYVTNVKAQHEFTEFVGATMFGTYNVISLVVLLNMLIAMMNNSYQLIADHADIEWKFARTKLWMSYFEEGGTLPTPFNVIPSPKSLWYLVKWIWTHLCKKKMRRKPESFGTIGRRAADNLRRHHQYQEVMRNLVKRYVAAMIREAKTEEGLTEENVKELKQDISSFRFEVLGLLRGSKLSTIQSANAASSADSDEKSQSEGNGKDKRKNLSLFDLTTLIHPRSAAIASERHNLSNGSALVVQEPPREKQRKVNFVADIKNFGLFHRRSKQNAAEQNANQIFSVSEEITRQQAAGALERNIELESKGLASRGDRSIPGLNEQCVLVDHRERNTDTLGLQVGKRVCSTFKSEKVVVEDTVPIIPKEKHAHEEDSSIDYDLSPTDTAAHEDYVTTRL

[3] = blockers of HIV-1 envelope-mediated cell-cell fusion – cherry-pick, dose response (AID 652057); assay type: functional, cell-based
[4] = viability loss in CEM21 cells – cell-based, CellTiter-Glo luminescence, cherry-picked, cytotoxicity control for viral fusion inhibitor project, dose response (AID 652042); assay type: functional;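 further: potency for signal decrease meaning cytotoxicity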
[5] = blockers of HIV-1 ZM109 envelope-driven cell-cell fusion – HeLa effector, CEM target cells, luciferase, cherry-pick, dose response (AID 652058); assay type: functional, cell-based;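 further: luciferase signal from HIV-1 Env mediated cell-cell fusion of effector and target cells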
[6] = off-target signal loss in HeLa-CEM21 co-culture – HeLa F-luc CTL cells, cherry-picked, counter-screen for HIV-1 Env fusion inhibitor project, dose response (AID 652040); assay type: functional, cell-based;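 further: potency for signal decrease marking cytotoxic or nonspecific inhibition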
[7] = HIV-1 AD8 envelope cell-cell fusion blockers – cherry-pick, dose response (AID 652062); assay type: functional, cell-based;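 further: luciferase signal from cell-cell fusion driven by HIV-1 clade B AD8 Env; potency is for inhibitors of fusion seen as a drop in luminescence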
[8] = molecular target: T2, DNA repair protein RAD52 homolog (Homo sapiens, UniProt P43351); assay type: functional, biochemical
T2 sequence (P43351 whole entry): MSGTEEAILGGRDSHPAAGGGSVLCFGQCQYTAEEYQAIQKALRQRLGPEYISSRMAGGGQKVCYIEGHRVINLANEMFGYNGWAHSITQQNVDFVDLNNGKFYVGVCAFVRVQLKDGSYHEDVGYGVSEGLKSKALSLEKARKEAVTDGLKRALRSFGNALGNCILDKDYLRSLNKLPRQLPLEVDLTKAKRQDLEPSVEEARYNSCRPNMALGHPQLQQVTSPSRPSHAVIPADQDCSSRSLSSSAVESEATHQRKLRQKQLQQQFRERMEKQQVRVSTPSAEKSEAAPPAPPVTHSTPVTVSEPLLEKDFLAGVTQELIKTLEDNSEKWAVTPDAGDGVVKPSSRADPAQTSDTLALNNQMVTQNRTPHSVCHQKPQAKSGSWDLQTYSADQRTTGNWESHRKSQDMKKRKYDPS

[9] = molecular target: T1, Short transient receptor potential channel 4; assay: block of DAMGO-driven TRPC4 calcium entry – cell-based, HEK293 TRPC4/mu-opioid, Fluo-4 calcium, dose response (AID 434942); assay type: functional;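 further: potency of inhibitors blocking the TRPC4 calcium response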
[10] = molecular target: Nonstructural protein 1 (Influenza A virus, UniProt Q194T2); assay type: functional, Influenza A virus (A/California/07/2009(H1N1))
[11] = HEK-293T cell viability reduction – luminescence, B-cell screen hits, cytotoxicity control for BCR NF-kB inhibitor project, dose response (AID 489021); assay type: functional, cell-based;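 further: HEK-293T cells carrying an NF-kB luciferase reporter; cells exposed to compound for about 14 hours before viability readout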
[12] = molecular target: T3, Rac GTPase-activating protein 1 (Homo sapiens, UniProt Q9H0H5); assay: blockers of MgcRacGAP-driven Rac1 GTP hydrolysis – biochemical, ADP Hunter fluorescence, primary and confirmatory, confirmation (AID 624330); assay type: functional
T3 sequence (Q9H0H5 whole entry): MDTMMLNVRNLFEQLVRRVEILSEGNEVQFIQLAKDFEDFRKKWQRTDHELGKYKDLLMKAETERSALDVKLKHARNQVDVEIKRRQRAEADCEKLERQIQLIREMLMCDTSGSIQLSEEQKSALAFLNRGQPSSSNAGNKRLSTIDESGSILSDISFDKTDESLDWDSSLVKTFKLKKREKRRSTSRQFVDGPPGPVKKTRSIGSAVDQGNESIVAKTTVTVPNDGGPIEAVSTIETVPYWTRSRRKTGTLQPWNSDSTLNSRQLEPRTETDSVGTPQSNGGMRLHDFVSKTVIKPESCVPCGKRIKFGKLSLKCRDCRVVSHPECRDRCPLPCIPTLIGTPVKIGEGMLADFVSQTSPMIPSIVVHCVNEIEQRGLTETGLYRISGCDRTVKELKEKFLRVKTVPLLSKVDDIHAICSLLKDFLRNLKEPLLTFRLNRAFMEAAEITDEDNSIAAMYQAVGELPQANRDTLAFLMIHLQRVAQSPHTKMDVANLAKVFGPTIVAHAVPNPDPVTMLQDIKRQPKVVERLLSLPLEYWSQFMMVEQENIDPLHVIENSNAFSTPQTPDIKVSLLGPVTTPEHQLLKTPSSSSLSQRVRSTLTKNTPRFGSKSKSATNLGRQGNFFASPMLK

Sequence of Nonstructural protein 1 (Q194T2 whole entry): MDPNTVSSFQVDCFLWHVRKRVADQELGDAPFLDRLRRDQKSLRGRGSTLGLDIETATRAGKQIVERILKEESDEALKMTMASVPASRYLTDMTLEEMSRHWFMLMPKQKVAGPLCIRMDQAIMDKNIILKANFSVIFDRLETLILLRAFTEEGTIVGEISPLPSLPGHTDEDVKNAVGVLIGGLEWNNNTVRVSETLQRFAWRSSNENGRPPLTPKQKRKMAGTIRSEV
Sequence of Eukaryotic translation initiation factor 4E (P63073 whole entry): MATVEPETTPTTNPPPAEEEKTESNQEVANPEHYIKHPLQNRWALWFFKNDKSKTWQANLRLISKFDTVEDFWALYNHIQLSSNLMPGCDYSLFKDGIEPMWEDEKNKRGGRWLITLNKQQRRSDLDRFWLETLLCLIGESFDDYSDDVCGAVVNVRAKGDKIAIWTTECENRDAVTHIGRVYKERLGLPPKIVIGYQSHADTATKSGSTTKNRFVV

C=CCn1c(S)nnc1-c1ccco1
IC50 [1]: > 64 µM (inactive)

COc1ccc(C(CCNCc2ccc(N(C)C)cc2)c2ccccc2)cc1 (centres undefined)
EC50 [2]: 5.96 µM (active) | AC50 [3]: 4.13 µM (active) | AC50 [4]: 18.2 µM (active) | AC50 [5]: 14.4 µM (active) | AC50 [6]: 17.5 µM (active) | AC50 [7]: 26.1 µM (active)

CCOc1cc2c3c(c1)C(C)CC(C)(C)N3C(=O)C2=O (centres undefined)
AC50 [3]: 8.22 µM (active) | AC50 [4]: 50.9 µM (active) | AC50 [5]: 6.91 µM (active) | AC50 [6]: 12.2 µM (active) | AC50 [7]: 12.7 µM (active)

COC(=O)Cn1cnc2c(Cl)nc(F)nc21
AC50 [3]: 20.5 µM (active) | AC50 [4]: 47.3 µM (active) | AC50 [6]: 25.6 µM (active)

COc1ccc(Cl)c2sc(N(CCN(C)C)C(=O)c3ccc4c(c3)OCCO4)nc12
AC50 [8]: 9.01 µM (active)

CCOc1ccccc1CN1CCN(Cc2cccc3nonc23)CC1CCO (centres undefined)
EC50 [9]: 5.31 µM (active)

CC1(Oc2ccc3ccccc3c2)CCN(Cc2cccn2-c2nccs2)C1 (centres undefined)
AC50 [3]: 10.9 µM (active) | AC50 [4]: 51.9 µM (active) | AC50 [5]: 12.3 µM (active) | AC50 [6]: 14.7 µM (active) | AC50 [7]: 29.4 µM (active)

O=C(N/N=C/c1ccc(O)cc1O)c1ccncc1
IC50 [10]: 5.88 µM (active)

CN(C)CCCNc1nc2cc(-c3cnn(Cc4ccccc4)c3)sc2c(=O)n1C
AC50 [8]: 19.8 µM (active)

C/C(CC(=O)N(C(C)C)C(C)C)=N\NC(=O)COc1ccc(Cl)cc1Cl
EC50 [9]: 13.3 µM (active)

C=CCN1C(=O)CS/C1=N\c1cccc(O)c1
IC50 [1]: > 64 µM (inactive)

Oc1cc(O)cc(-c2cc3ccc(O)cc3o2)c1 [MORACIN M]
IC50 [11]: > 80 µM (inactive) | IC50 [12]: 23 µM (active)

O=C(N/N=C/c1ccccc1O)c1ccncc1 [SALINAZID]
IC50 [10]: 7.54 µM (active)
